Experimental data as given in US20250302743A1, “METHODS OF TREATING DERMATOLOGICAL CONDITIONS AND SYMPTOMS THEREOF” (KAMARI PHARMA LTD., priority 2022, published 2025).

How the values were obtained:
DS-Nh mice = experiment: DS-Nh mouse model, topical dosing (scratching behavior, skin histology); type: in vivo
From the text: DS-Nh mice raised under conventional conditions spontaneously develop dermatitis and skin abnormalities characterized by hyperkeratosis, reduced basal keratinocytes proliferation, defective differentiation, and keratinization of skin appendages.
At the end of the study, the mice were sacrificed, and skin biopsies were paraffin-embedded, stained with hematoxylin and eosin (H&E) and assessed microscopically (FIG. 7).

male C57BL/6J mice = experiment: Acetone-ether-water (AEW)-induced pruritus model, oral dosing; type: in vivo, mouse
Method: (§1) The efficacy of KM-001 was assessed in an acetone-ether-water (AEW)-induced pruritus model in male C57BL/6J mice, a model induced by daily treatment of an acetone/ether (1:1) mixture and water applied to the animal's cheek. KM-001 (10 mg/kg, 1 mg/kg, 0.1 mg/kg and 0.01 mg/kg) was administered orally to 20 mice. The amount of time spent scratching and the number of bouts during the 20 minutes were recorded by an observer. Blood and skin samples were collected at 0, 0.5 hr, 1 hr and 1.5 hr post dosing.

keratinocytes = conditions: found in US 2002/0332697 A1, cited from earlier work
[1] = 28-day oral repeat dose toxicity study, systemic exposure; type: in vivo, rat; conditions: for AUC0-tlast / Cmax: Rat, oral
Method: (§2) I: Blood concentrations of KM-001 were evaluated using a validated analytical method as part of the toxicity studies in minipigs and rats.

[2] = Blood concentrations in minipig dermal toxicity study (13 weeks); type: in vivo; conditions: for AUC0-tlast / Cmax: MiniPig, 6 g/day
Method: as §2

[3] = Plasma concentration in AEW pruritus study, oral dosing; type: in vivo, mouse; conditions: mice, oral 0.1 mg/kg
Method: as §1

TRPV3 = TRPV3 (Homo sapiens, UniProt Q8NET8); conditions: read-out: IC50 (inhibit TRPV3); found in US 2002/0332697 A1; cited from earlier work
Sequence of TRPV3 (Q8NET8 whole entry, species assumed): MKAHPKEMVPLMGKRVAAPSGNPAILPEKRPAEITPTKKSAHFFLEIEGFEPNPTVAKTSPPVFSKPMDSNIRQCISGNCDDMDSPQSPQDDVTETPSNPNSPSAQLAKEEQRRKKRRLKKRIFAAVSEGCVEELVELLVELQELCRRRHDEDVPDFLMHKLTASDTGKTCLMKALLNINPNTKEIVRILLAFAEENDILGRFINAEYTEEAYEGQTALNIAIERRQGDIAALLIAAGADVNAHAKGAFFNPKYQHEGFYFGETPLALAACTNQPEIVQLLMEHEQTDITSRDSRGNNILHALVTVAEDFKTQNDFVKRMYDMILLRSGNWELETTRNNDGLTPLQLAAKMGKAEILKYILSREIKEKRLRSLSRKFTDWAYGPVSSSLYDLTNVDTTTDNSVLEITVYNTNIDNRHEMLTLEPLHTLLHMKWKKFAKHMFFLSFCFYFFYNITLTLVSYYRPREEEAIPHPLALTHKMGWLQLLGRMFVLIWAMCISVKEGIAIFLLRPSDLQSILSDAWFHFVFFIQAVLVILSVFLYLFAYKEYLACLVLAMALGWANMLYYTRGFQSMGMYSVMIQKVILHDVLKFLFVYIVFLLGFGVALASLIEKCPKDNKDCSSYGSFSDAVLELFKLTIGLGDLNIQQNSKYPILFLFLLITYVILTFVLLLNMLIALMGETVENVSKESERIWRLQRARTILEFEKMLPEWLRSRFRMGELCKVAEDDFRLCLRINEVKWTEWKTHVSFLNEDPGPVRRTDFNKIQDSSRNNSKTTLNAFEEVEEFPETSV

[4] = Saturated solubility, shake flask method, UPLC-UV; type: physicochemical; conditions: for Saturated Solubility API: RT, 24 hours
Method: Saturated solubility was determined using the shake flask method with excess API at room temperature (RT). It was assumed that equilibrium was attained after 24 hours, and excess solid was separated by ultrafiltration prior to dilution and quantification. Quantification of KM-001 for saturated solubility studies was performed using a qualified UPLC-UV analytical method.

[5] = Estimated human systemic exposure and safety margins (dose-linear extrapolation from minipig PK)
Method: as §2

[6] = 0.5% formulation, 2.25 mg/kg*day, Week 13
[7] = 1.0% formulation, 4.5 mg/kg*day, Week 13

For C=CC[C@@H]1/C=C(\C)C[C@H](C)C[C@H](OC)[C@H]2O[C@@](O)(C(=O)C(=O)N3CCCC[C@H]3C(=O)O[C@H](/C(C)=C/[C@@H]3CC[C@@H](O)[C@H](OC)C3)[C@H](C)[C@@H](O)CC1=O)[C@H](C)C[C@@H]2OC [tacrolimus 0.1%, tacrolimus], the reduction in scratch (DS-Nh mice; day 14, twice daily topical treatment) was 20% and the “mice exhibiting normalization of skin pathology” value (DS-Nh mice; two weeks of treatment, H&E histology, partial normalization for tacrolimus) was 40 % of mice.

With “(S)-2-(1,3-dimethyl-2-6-dioxo-2,3-1h-purin-7(6H)-N-(4-(3-Fluoro-4-2methylpyrrolidin-1-yl)phenyl)thiazol-2-yl)acetamide [KM-001]” the scratching bouts (male C57BL/6J mice; oral 0.01 mg/kg) was “trended to decrease”, the scratching time (male C57BL/6J mice; oral 0.01 mg/kg) was “trended to decrease” and the scratching time (male C57BL/6J mice; oral 0.1 mg/kg, p<0.001) was “significantly decreased”. The scratching bouts (male C57BL/6J mice; oral 0.1 mg/kg, p<0.01) was “significantly decreased”, the “Ca^+2 flux in keratinocytes” value (keratinocytes) was “significantly reduced” and the differentiation markers (keratinocytes; keratinocytes) was “normalized”. It also gave an NOAEL ([1]; 28-day oral repeat dose toxicity study in the rat) of 10 mg/kg/day, an AUC0-tlast ([1]; 1 mg/kg*day, Day 28) of 479 ng·h/mL and a Cmax ([1]; 1 mg/kg*day, Day 28, mean male and female) of 97 ng/mL. It also gave an AUC0-tlast ([1]; 5 mg/kg*day, Day 28) of 4570 ng·h/mL, a Cmax ([1]; 5 mg/kg*day, Day 28) of 525 ng/mL and a Cmax ([1]; 10 mg/kg*day (NOAEL), Day 28) of 968 ng/mL. The AUC0-tlast ([1]; 10 mg/kg*day, Day 28) was 8360 ng·h/mL, the AUC ([1]; rat, 28-day oral repeat dose, at NOAEL of 10 mg/kg/day) was 8357 ng·h/mL and the AUC0-tlast ([2]; 0.1% formulation, 0.45 mg/kg*day, Week 13) was 16.6 ng·h/mL. It also gave a Cmax ([2]; 0.1% formulation, 0.45 mg/kg*day, Week 13, mean male and female) of 2.3 ng/mL, an AUC0-tlast [2, 6] of 73.7 ng·h/mL and a Cmax [2, 6] of 5.3 ng/mL. The AUC0-tlast [2, 7] was 159 ng·h/mL, the Cmax [2, 7] was 10.8 ng/mL and the AUC ([2]; minipigs, 4.5 mg KM-001/kg/day) was 159.1 ng·h/mL. The “maximum plasma concentration (Cmax)” value [3] was 1.34 ng/mL, the IC50 (TRPV3) was ~3 nM and the “solubility in triglycerides and fatty alcohols” value [4] was “relatively soluble”. The “Saturated Solubility API” value ([4]; M1: Miglyol 812 N 33.3%, Arlamol E 62.5%, Phenoxy-2-ethanol 4.2%) was 13.1 % w/w, the “Saturated Solubility API” value ([4]; M2: Miglyol 812 N 8%, Arlamol E 15%, Macrol-82 77%) was 0.7 % w/w and the “Saturated Solubility API” value ([4]; M3: Miglyol 812 N 10%, Kollicream OD 10%, Macrol-82 75%, Kollicream OA 5%) was 1.5 % w/w. For the same compound, the “Saturated Solubility API” value ([4]; M6: Miglyol 812 N 20%, Arlamol E 16%, Kollicream OA 10%, Macrol-82 54%) was 4.0 % w/w, the “Saturated Solubility API” value ([4]; M10: Miglyol 812 N 20%, Crodamol IPM 21.85%, Kollicream OA 5%, Light Mineral Oil 53.15%) was 1.6 % w/w and the “Saturated Solubility API” value ([4]; M13: Miglyol 812 N 47.83%, Kollicream OD 52.17%) was 13.0 % w/w. The “Saturated Solubility API” value ([4]; M14: Miglyol 812 N 45.83%, Kollicream OD 50%, Phenoxy-2-ethanol 4.17%) was 14.0 % w/w, the “safety margin for AUC, rat vs estimated human exposure” value ([5]; 0.3%) was 836 fold and the “AUC, estimated human systemic exposure” value ([5]; 0.3% cream) was “approx. 10 ng/mL*h”. For the same compound, the “safety margin for AUC, rat vs estimated human exposure” value ([5]; 1%) was 261 fold, the “AUC, estimated human systemic exposure” value ([5]; 1% cream) was ~32 ng·h/mL and the “safety margin for Cmax, rat vs estimated human exposure” value ([5]; 1% cream-gel) was “approx. 242 fold”. For the same compound, the “Dose MiniPig API (safety factor)” value ([5]; Human dermal 0.3% formulation vs minipig dose) was 34 and the “Dose MiniPig API (safety factor)” value ([5]; Human dermal 1.0% formulation vs minipig dose) was 11.
